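All cell lines were grown in 96-well plates and treated with compound for 48 hours. Abbreviation: GI50, concentration required for 50% inhibition of growth.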 Calls of active or inactive are those of the source. No stated cut-off is given here; in the data, active = GI50 up to about 1.1 µM and inactive = higher.
Assays:
Experiment in all cases: inhibition of tumour cell growth, NCI panel, 48 h
COLO 205 = system: COLO 205
NCI-H522 = system: NCI-H522
SF-295 = system: SF-295
SF-268 = system: SF-268
NCI/ADR-RES = system: NCI/ADR-RES
OVCAR-3 = system: OVCAR-3
SK-MEL-5 = system: SK-MEL-5
U-251 = system: U-251
MDA-N = system: MDA-N
A549 = system: A549
OVCAR-8 = system: OVCAR-8
NCI-H23 = system: NCI-H23
CCRF-CEM = system: CCRF-CEM
T47D = system: T47D
UACC-62 = system: UACC-62
MCF7 = system: MCF7
HCC 2998 = system: HCC 2998
RPMI-8226 = system: RPMI-8226
NCI-H226 = system: NCI-H226
HT-29 = system: HT-29

Measured: GI50

Cc1cc(S(=O)(=O)NC(=C(C#N)C#N)[n+]2ccc(N(C)C)cc2)c([S-])cc1Cl
inactive: COLO 205 > 100 µM | NCI-H522 42.3 µM | SF-295 > 100 µM | SF-268 > 100 µM | NCI/ADR-RES > 100 µM | OVCAR-3 > 100 µM | SK-MEL-5 > 100 µM | U-251 > 100 µM | MDA-N > 100 µM | A549 > 100 µM | OVCAR-8 > 100 µM | NCI-H23 > 100 µM | CCRF-CEM > 100 µM | T47D > 100 µM | UACC-62 > 100 µM | MCF7 > 100 µM | HCC 2998 > 100 µM | RPMI-8226 > 100 µM | NCI-H226 > 100 µM | HT-29 > 100 µM

O=C(O)COc1cc(-c2ccccc2)nc2ccc(F)cc12
inactive: COLO 205 > 100 µM | NCI-H522 58.1 µM | SF-295 > 100 µM | SF-268 > 100 µM | NCI/ADR-RES > 100 µM | OVCAR-3 > 100 µM | SK-MEL-5 > 100 µM | U-251 > 100 µM | MDA-N > 100 µM | A549 > 100 µM | OVCAR-8 > 100 µM | NCI-H23 > 100 µM | CCRF-CEM > 100 µM | T47D > 100 µM | UACC-62 > 100 µM | MCF7 > 100 µM | HCC 2998 98.6 µM | RPMI-8226 > 100 µM | NCI-H226 > 100 µM | HT-29 > 100 µM

— ChEMBL document CHEMBL1201862, “PubChem BioAssay data set” (2004)
